Experimental data as given in publication PMC8053501 (Diabetes, Metabolic Syndrome and Obesity: Targets and …, 2021).
Entries after “also recorded” stand apart in the source; their conditions may differ. Like-named read-outs stand apart in the source and are kept apart here. Each block holds one compound with its values, some of them ahead of it.

Columns and labels:
[1] = in vivo; conditions: male, ICR, mouse, po; for Cmax / half-life: oral gavage; for half-life: t1/2, mouse
[2] = normal mice, oral gavage, 3mg/kg
[3] = tested on: diabetes mellitus patients; assay: Acute kidney injury; type: in vivo, human; conditions: for Association with AKI, Unadjusted (95% CI) / Association with AKI, Adjusted (95% CI): metformin as reference; for Association with AKI, Adjusted (95% CI): multivariate; for Events During the 90 days (AKI): primary endpoint, first 90 days, patients above 55 years; for Total endpoint (AKI events): primary plus secondary endpoint; for Events at secondary end (AKI): secondary endpoint, after 90 days of hospital admission; for Total Percent (incidence rate of AKI at the end of the study): share of the 4966 total outcomes
[4] = Endpoint Diagnosis with 1047 Outcome
[5] = Secondary Diagnosis with 3919 Outcomes

Tmax [1]: 30 min
Tmax ([1]; 3 mg/kg): 30 min
Cmax ([1]; 3 mg/kg, Kidney): 12100 ng/mL
Cmax ([1]; 3 mg/kg, Liver): 11700 ng/mL
Cmax ([1]; 3 mg/kg, Plasma): 983 ng/mL
half-life ([1]; 3 mg/kg, Kidney): 270 min
half-life ([1]; 3 mg/kg, Liver): 216 min
half-life ([1]; 3 mg/kg, Plasma): 144 min
Drug concentration, time course ([2]; Kidney, 0h): 0
Drug concentration, time course ([2]; Kidney, 3h): 10,340
Drug concentration, time course ([2]; Kidney, 6h): 8900
Drug concentration, time course ([2]; Kidney, 9h): 6480
Drug concentration, time course ([2]; Kidney, 12h): 2100
Drug concentration, time course ([2]; Kidney, 15h): 450
Drug concentration, time course ([2]; Kidney, 18h): 0
Drug concentration, time course ([2]; Kidney, 21h): 0
Drug concentration, time course ([2]; Kidney, 24h): 0
Drug concentration, time course ([2]; Liver, 0h): 0
Drug concentration, time course ([2]; Liver, 3h): 13,200
Drug concentration, time course ([2]; Liver, 6h): 9800
Drug concentration, time course ([2]; Liver, 9h): 6250
Drug concentration, time course ([2]; Liver, 12h): 2300
Drug concentration, time course ([2]; Liver, 15h): 400
Drug concentration, time course ([2]; Liver, 18h): 50
Drug concentration, time course ([2]; Liver, 21h): 0
Drug concentration, time course ([2]; Liver, 24h): 0
Drug concentration, time course ([2]; Plasma, 0h): 0
Drug concentration, time course ([2]; Plasma, 3h): 250
Drug concentration, time course ([2]; Plasma, 6h): 50
Drug concentration, time course ([2]; Plasma, 9h): 30
Drug concentration, time course ([2]; Plasma, 12h): 0
Drug concentration, time course ([2]; Plasma, 15h): 0
Drug concentration, time course ([2]; Plasma, 18h): 0
Drug concentration, time course ([2]; Plasma, 21h): 0
Drug concentration, time course ([2]; Plasma, 24h): 0
Compound: Cc1ccc(-c2cc(C(F)(F)F)nn2-c2ccc(S(N)(=O)=O)cc2)cc1 [Celecoxib, celecoxib]
Association with AKI, Unadjusted (95% CI) [3, 4]: 2.95 (2.68–3.25)
Association with AKI, Adjusted (95% CI) [3, 4]: 2.32 (2.12–2.68)
Association with AKI, Unadjusted (95% CI) [3, 5]: 1.87 (1.64–2.43)
Association with AKI, Adjusted (95% CI) [3, 5]: 1.86 (1.53–2.77)
Association with AKI compared to control drug metformin, in words ([3]; multivariate analysis): increased rate of AKI; also recorded: higher risk for AKI
Events During the 90 days (AKI) [3]: 112
Total endpoint (AKI events) [3]: 533
Events at secondary end (AKI) [3]: 421
Total Percent (incidence rate of AKI at the end of the study) [3]: 10.72%

Tmax [1]: 60 min
Tmax ([1]; 3 mg/kg): 60 min
Cmax ([1]; 3 mg/kg, Kidney): 6440 ng/mL
Cmax ([1]; 3 mg/kg, Liver): 5050 ng/mL
Cmax ([1]; 3 mg/kg, Plasma): 578 ng/mL
half-life ([1]; 3 mg/kg, Kidney): 222 min
half-life ([1]; 3 mg/kg, Liver): 168 min
half-life ([1]; 3 mg/kg, Plasma): 156 min
Drug concentration, time course ([2]; Kidney, 0h): 0
Drug concentration, time course ([2]; Kidney, 3h): 18,500
Drug concentration, time course ([2]; Kidney, 6h): 12,800
Drug concentration, time course ([2]; Kidney, 9h): 9500
Drug concentration, time course ([2]; Kidney, 12h): 5400
Drug concentration, time course ([2]; Kidney, 15h): 2500
Drug concentration, time course ([2]; Kidney, 18h): 500
Drug concentration, time course ([2]; Kidney, 21h): 0
Drug concentration, time course ([2]; Kidney, 24h): 0
Drug concentration, time course ([2]; Liver, 0h): 0
Drug concentration, time course ([2]; Liver, 3h): 7500
Drug concentration, time course ([2]; Liver, 6h): 6000
Drug concentration, time course ([2]; Liver, 9h): 1200
Drug concentration, time course ([2]; Liver, 12h): 300
Drug concentration, time course ([2]; Liver, 15h): 50
Drug concentration, time course ([2]; Liver, 18h): 0
Drug concentration, time course ([2]; Liver, 21h): 0
Drug concentration, time course ([2]; Liver, 24h): 0
Drug concentration, time course ([2]; Plasma, 0h): 0
Drug concentration, time course ([2]; Plasma, 3h): 450
Drug concentration, time course ([2]; Plasma, 6h): 310
Drug concentration, time course ([2]; Plasma, 9h): 50
Drug concentration, time course ([2]; Plasma, 12h): 0
Drug concentration, time course ([2]; Plasma, 15h): 0
Drug concentration, time course ([2]; Plasma, 18h): 0
Drug concentration, time course ([2]; Plasma, 21h): 0
Drug concentration, time course ([2]; Plasma, 24h): 0
Compound: CC#CCn1c(N2CCC[C@@H](N)C2)nc2c1c(=O)n(Cc1nc(C)c3ccccc3n1)c(=O)n2C [Linagliptin, linagliptin]
Association with AKI, Unadjusted (95% CI) [3, 4]: 0.97 (0.68–1.32)
Association with AKI, Adjusted (95% CI) [3, 4]: 0.86 (0.72–1.46)
Association with AKI, Unadjusted (95% CI) [3, 5]: 0.87 (0.72–1.21)
Association with AKI, Adjusted (95% CI) [3, 5]: 1.23 (0.73–1.65)
Events During the 90 days (AKI) [3]: 56
Total endpoint (AKI events) [3]: 284
Events at secondary end (AKI) [3]: 228
Total Percent (incidence rate of AKI at the end of the study) [3]: 5.72%

Tmax [1]: 30 min
Tmax ([1]; 3 mg/kg): 30 min
Cmax ([1]; 3 mg/kg, Kidney): 5870 ng/mL
Cmax ([1]; 3 mg/kg, Liver): 5030 ng/mL
Cmax ([1]; 3 mg/kg, Plasma): 765 ng/mL
Drug concentration, time course ([2]; Kidney, 0h): 0
Drug concentration, time course ([2]; Kidney, 3h): 4500
Drug concentration, time course ([2]; Kidney, 6h): 3950
Drug concentration, time course ([2]; Kidney, 9h): 1650
Drug concentration, time course ([2]; Kidney, 12h): 100
Drug concentration, time course ([2]; Kidney, 15h): 25
Drug concentration, time course ([2]; Kidney, 18h): 0
Drug concentration, time course ([2]; Kidney, 21h): 0
Drug concentration, time course ([2]; Kidney, 24h): 0
Drug concentration, time course ([2]; Liver, 0h): 0
Drug concentration, time course ([2]; Liver, 3h): 8300
Drug concentration, time course ([2]; Liver, 6h): 4800
Drug concentration, time course ([2]; Liver, 9h): 2900
Drug concentration, time course ([2]; Liver, 12h): 300
Drug concentration, time course ([2]; Liver, 15h): 50
Drug concentration, time course ([2]; Liver, 18h): 0
Drug concentration, time course ([2]; Liver, 21h): 0
Drug concentration, time course ([2]; Liver, 24h): 0
Drug concentration, time course ([2]; Plasma, 0h): 0
Drug concentration, time course ([2]; Plasma, 3h): 7500
Drug concentration, time course ([2]; Plasma, 6h): 3000
Drug concentration, time course ([2]; Plasma, 9h): 1200
Drug concentration, time course ([2]; Plasma, 12h): 600
Drug concentration, time course ([2]; Plasma, 15h): 200
Drug concentration, time course ([2]; Plasma, 18h): 0
Drug concentration, time course ([2]; Plasma, 21h): 0
Drug concentration, time course ([2]; Plasma, 24h): 0
Compound: N#C[C@@H]1CCCN1C(=O)CNC12CC3CC(CC(O)(C3)C1)C2 [Vildagliptin, vildagliptin]
Association with AKI, Unadjusted (95% CI) [3, 4]: 1.23 (0.97–1.32)
Association with AKI, Adjusted (95% CI) [3, 4]: 1.18 (0.92–1.35)
Association with AKI, Unadjusted (95% CI) [3, 5]: 1.20 (0.72–1.38)
Association with AKI, Adjusted (95% CI) [3, 5]: 1.07 (0.95–1.45)
Events During the 90 days (AKI) [3]: 79
Total endpoint (AKI events) [3]: 316
Events at secondary end (AKI) [3]: 237
Total Percent (incidence rate of AKI at the end of the study) [3]: 6.36%
